According to the supplement of paper PMC13380429:

Assays:
Conditions in all cases: 72 h
Caco-2 [1] = experiment: relative viability EC50 (midpoint between 100% and the lowest measured viability); higher = less toxic
Vero E6 [2] = experiment: as above
Calu-3 [3] = experiment: as above
HepG2 [4] = experiment: as above
U2OS [5] = experiment: as above
Caco-2 [6] = experiment: drug sensitivity score (DSS) for viability; higher = more toxic; extreme values may be limits of the assay
Vero E6 [7] = experiment: as above
Calu-3 [8] = experiment: as above
HepG2 [9] = experiment: as above
U2OS [10] = experiment: as above
Caco-2 [11] = experiment: cell viability relative to DMSO; higher = less toxic
Vero E6 [12] = experiment: as above
Calu-3 [13] = experiment: as above
HepG2 [14] = experiment: as above
U2OS [15] = experiment: as above

Compound	relative viability EC50 (Caco-2 [1])	relative viability EC50 (Vero E6 [2])	relative viability EC50 (Calu-3 [3])	relative viability EC50 (HepG2 [4])	relative viability EC50 (U2OS [5])	drug sensitivity score (Caco-2 [6])	drug sensitivity score (Vero E6 [7])	drug sensitivity score (Calu-3 [8])	drug sensitivity score (HepG2 [9])	drug sensitivity score (U2OS [10])	cell viability (Caco-2 [11]; 1 nM)	cell viability (Caco-2 [11]; 10 nM)	cell viability (Caco-2 [11]; 100 nM)	cell viability (Caco-2 [11]; 1000 nM)	cell viability (Caco-2 [11]; 10000 nM)	cell viability (Vero E6 [12]; 1 nM)	cell viability (Vero E6 [12]; 10 nM)	cell viability (Vero E6 [12]; 100 nM)	cell viability (Vero E6 [12]; 1000 nM)	cell viability (Vero E6 [12]; 10000 nM)	cell viability (Calu-3 [13]; 1 nM)	cell viability (Calu-3 [13]; 10 nM)	cell viability (Calu-3 [13]; 100 nM)	cell viability (Calu-3 [13]; 1000 nM)	cell viability (Calu-3 [13]; 10000 nM)	cell viability (HepG2 [14]; 1 nM)	cell viability (HepG2 [14]; 10 nM)	cell viability (HepG2 [14]; 100 nM)	cell viability (HepG2 [14]; 1000 nM)	cell viability (HepG2 [14]; 10000 nM)	cell viability (U2OS [15]; 1 nM)	cell viability (U2OS [15]; 10 nM)	cell viability (U2OS [15]; 100 nM)	cell viability (U2OS [15]; 1000 nM)	cell viability (U2OS [15]; 10000 nM)
COc1cc(C[C@@H](CO[C@@H]2O[C@H](CO)[C@@H](O)[C@H](O)[C@H]2O)[C@H](CO[C@@H]2O[C@H](CO)[C@@H](O)[C@H](O)[C@H]2O)Cc2ccc(O)c(OC)c2)ccc1O [secoisolariciresinol-diglucoside]	> 10 µM	> 10 µM	> 10 µM	> 10 µM	> 10 µM	0	0	0	0	0	100%	93.6%	96.7%	99.4%	108%	95.6%	101%	93.6%	97.8%	110%	103%	92.9%	87.4%	103%	102%	98.7%	104%	102%	111%	110%	94%	96.7%	101%	101%	97.9%
CC(SC(=O)c1cccs1)C(=O)NCC(=O)O (stereo not given) [stepronin]	> 10 µM	> 10 µM	> 10 µM	> 10 µM	> 10 µM	0	0	0	0.3	0	112%	84.4%	96.1%	103%	103%	109%	91.9%	108%	101%	98.8%	91.9%	106%	97.6%	110%	97.5%	106%	102%	105%	88.6%	97%	96.6%	104%	93.5%	99%	97.1%
COc1cc(C(=S)N2CCOCC2)cc(OC)c1OC [sulmetozine]	> 10 µM	> 10 µM	> 10 µM	> 10 µM	> 10 µM	0	0	0	0	0	90.8%	98%	90.6%	91.6%	103%	103%	94.7%	105%	97.7%	113%	96.5%	99.4%	102%	99.9%	105%	95%	102%	98.6%	111%	108%	97.2%	103%	94.6%	96.3%	102%
Cc1coc2c1C(=O)C(=O)c1c-2ccc2c(C)cccc12 [tanshinone-I]	> 10 µM	> 10 µM	> 10 µM	> 10 µM	> 10 µM	0.7	0	0	0	0	93.1%	97.4%	104%	90.7%	86.2%	91.9%	94.9%	90.7%	96.5%	104%	93.8%	91.7%	104%	110%	100%	91%	104%	89.4%	111%	105%	97.8%	97.8%	103%	93.9%	95.2%
CCCCCNC(=N)N/N=C/c1c[nH]c2ccc(OC)cc12 [tegaserod]	> 10 µM	> 10 µM	> 10 µM	> 10 µM	> 10 µM	0	0	0	0	0	83.7%	89.8%	108%	84.7%	96.9%	100%	94.4%	97.8%	90.7%	92.8%	105%	96.3%	97.9%	91.4%	92.9%	94.6%	94%	109%	105%	114%	94.1%	99.3%	94.6%	97.7%	95.9%
O=C(CNC(=O)c1cccc(C(F)(F)F)c1)N[C@@H]1CCN(Cc2ccc(Cl)cc2)C1 [teijin-compound-1]	> 10 µM	> 10 µM	> 10 µM	> 10 µM	> 10 µM	0.9	0	0	1	0	113%	108%	106%	98.8%	78%	109%	102%	100%	98.1%	94.8%	95.9%	98.8%	95.9%	94.4%	91.5%	108%	110%	107%	92%	83.8%	95.7%	98.5%	95.6%	99.7%	91.1%
CCOC(=O)[C@H](CCc1ccccc1)N[C@H]1CS[C@H](c2cccs2)CN(CC(=O)O)C1=O [temocapril]	> 10 µM	> 10 µM	> 10 µM	> 10 µM	> 10 µM	0	0	0	0	0	99.4%	95.8%	93.2%	93.3%	105%	98.8%	105%	109%	91.3%	97.8%	93.8%	108%	95.5%	103%	102%	103%	98.6%	108%	96.7%	112%	97.7%	101%	94.2%	99.2%	95.4%
COc1cc2c(cc1OC)C1CC(=O)C(CC(C)C)CN1CC2 (stereo not given) [tetrabenazine]	> 10 µM	> 10 µM	> 10 µM	> 10 µM	> 10 µM	0	0	0	0	0	97.6%	99.3%	96.3%	96.5%	100%	96.6%	97.8%	96.2%	99.1%	95%	107%	103%	96.3%	105%	104%	95.1%	99.4%	98.8%	99.9%	105%	95.9%	99.3%	94.7%	93.9%	103%
O=C(O)C(=O)c1cn(Cc2ccccc2)c2ccc(-c3ccc(OC(F)(F)F)cc3)cc12 [tiplaxtinin]	> 10 µM	> 10 µM	> 10 µM	> 10 µM	> 10 µM	0	0.7	0	0	0	104%	106%	102%	92.2%	92.8%	108%	106%	96.6%	98.2%	81.3%	113%	95.5%	96.8%	98.6%	104%	104%	98.8%	102%	93.8%	93.1%	94.5%	92.1%	104%	94.7%	96.5%
NC[C@H]1O[C@H](O[C@H]2[C@H](O)[C@@H](O[C@H]3O[C@H](CO)[C@@H](O)[C@H](N)[C@H]3O)[C@H](N)C[C@@H]2N)[C@H](N)C[C@@H]1O [tobramycin]	> 10 µM	> 10 µM	> 10 µM	> 10 µM	> 10 µM	0	0	0	0	0	90.2%	92.8%	104%	92.6%	106%	99.6%	101%	100%	95.7%	107%	99.4%	102%	101%	98.5%	102%	108%	94.5%	104%	97.6%	106%	95%	103%	97.6%	100%	108%
Cc1cc(-n2c(=O)[nH]c(=O)n(C)c2=O)ccc1Oc1ccc(SC(F)(F)F)cc1 [toltrazuril]	> 10 µM	> 10 µM	> 10 µM	> 10 µM	> 10 µM	0	0	0	0	0	104%	109%	105%	97.1%	97.4%	99.5%	105%	101%	96.3%	95.8%	98.8%	83.1%	105%	106%	101%	90.4%	107%	99.5%	95.9%	102%	97.2%	95.2%	93.1%	99.6%	92.1%
